Laboratory results from ChEMBL document CHEMBL4334438, “Discovery of novel glycogen synthase kinase-3α inhibitors: Structure-based virtual screening, preliminary SAR and biological evaluation for treatment of acute myeloid leukemia” (Eur J Med Chem, 2019).

Experiments:
[1] = target: Hepatocyte growth factor receptor (Homo sapiens) (UniProt P08581); test: Inhibition of recombinant human MET A1209G/V1290L mutant (974 to end residues) assessed as residual activity at 1 uM using KKKGQEEEYVFIE as substrate incubated for 40 mins in presence of [gamma-33ATP by scintillation counting based radiometry assay relative to control
[2] = target: Serine/threonine-protein kinase 17B (Homo sapiens) (UniProt O94768); test: Inhibition of recombinant human DRAK2 assessed as residual activity at 1 uM using KKRPQRRYSNVF as substrate at 120 mins in presence of [gamma-33ATP] by scintillation counting based radiometry assay relative to control
[3] = target: CDK2/Cyclin A1 (Homo sapiens) (UniProt P24941+P78396); test: Inhibition of recombinant full length human CDK2/CyclinA assessed as residual activity at 1 uM using Histone H1 as substrate incubated for 40 mins in presence of [gamma-33ATP] by scintillation counting based radiometry assay relative to control; assay type: protein-complex assay
[4] = target: Tyrosine-protein kinase HCK (Homo sapiens) (UniProt P08631); test: Inhibition of human HCK (230 to 497 residues) assessed as residual activity at 1 uM using KVEKIGEGTYGVVYK as substrate after 40 mins by [gamma-33ATP] radiometric assay relative to control
[5] = target: Mitogen-activated protein kinase kinase kinase kinase 3 (Homo sapiens) (UniProt Q8IVH8); test: Inhibition of recombinant human MAP4K3 (1 to 291 residues) assessed as residual activity at 1 uM using RLGRDKYKTLRQIRQ as substrate incubated for 40 mins in presence of [gamma-33ATP by scintillation counting based radiometry assay relative to control
[6] = target: Serine/threonine-protein kinase 17A (Homo sapiens) (UniProt Q9UEE5); test: Inhibition of recombinant human DRAK1 assessed as residual activity at 1 uM using KKLNRTLSFAEPG as substrate at 40 mins in presence of [gamma-33ATP] by scintillation counting based radiometry assay relative to control
[7] = target: Serine/threonine-protein kinase PLK2 (Homo sapiens) (UniProt Q9NYY3); test: Inhibition of human Snk (65 to 409 residues) assessed as residual activity at 1 uM using casein as substrate measured after 40 mins in presence of [gamma33P]ATP by scintillation counting method relative to control
[8] = test system: eIF-2-alpha kinase GCN2 (Homo sapiens), Q9P2K8 [E556G]; test: Inhibition of recombinant full length human GCN2 E556G mutant assessed as residual activity at 1 uM using RSRSRSRSRSRSRSR as substrate at 40 mins in presence of [gamma-33ATP] by scintillation counting based radiometry assay relative to control
[9] = test system: Fibroblast growth factor receptor 2 (Homo sapiens), P21802 [N549H]; test: Inhibition of recombinant human FGFR2 N549H mutant (456 to 770 residues) assessed as residual activity at 1 uM using GGEEEEYFELVKKKK as substrate at 40 mins in presence of [gamma-33ATP] by scintillation counting based radiometry assay relative to control
[10] = target: Serine/threonine-protein kinase PAK 3 (Homo sapiens) (UniProt O75914); test: Inhibition of recombinant full-length human PAK3 assessed as residual activity at 1 uM using RRRLSFAEPG as substrate measured after 40 mins in presence of [gamma33P]ATP by scintillation counting method relative to control
[11] = target: [Pyruvate dehydrogenase (acetyl-transferring)] kinase isozyme 4, mitochondrial (Homo sapiens) (UniProt Q16654); test: Inhibition of recombinant human full length PDHK4 assessed as residual activity at 1 uM using KKKYHGHSMSDPGVSYRT as substrate measured after 40 mins in presence of [gamma33P]ATP by scintillation counting method relative to control
[12] = test system: Epidermal growth factor receptor (Homo sapiens), P00533 [L861Q]; test: Inhibition of recombinant human EGFR L861Q mutant (696 to end residues) assessed as residual activity at 1 uM using poly(Glu, Tyr) 4:1 as substrate at 40 mins in presence of [gamma-33ATP] by scintillation counting based radiometry assay relative to control
[13] = target: Glycogen synthase kinase-3 beta (Homo sapiens, UniProt P49841, H350L); test: Inhibition of human GSK-3beta H350L mutant (2 to end residues) at 10 uM using phospho GS2 peptide as substrate after 40 mins by [gamma-33ATP] radiometric assay
[14] = target: Mitogen-activated protein kinase 10 (Homo sapiens) (UniProt P53779); test: Inhibition of human JNK3 assessed as residual activity at 1 uM using peptide as substrate after 40 mins by [gamma-33ATP] radiometric assay relative to control
[15] = target: Mitogen-activated protein kinase kinase kinase 9 (Homo sapiens) (UniProt P80192); test: Inhibition of recombinant human MLK1 (134 to 414 residues) assessed as residual activity at 1 uM using casein as substrate incubated for 40 mins in presence of [gamma-33ATP by scintillation counting based radiometry assay relative to control
[16] = test system: RAF proto-oncogene serine/threonine-protein kinase (Homo sapiens), P04049 [Y340D,Y341D]; test: Inhibition of recombinant human C-Raf Y340D/Y341D double mutant (306 to end residues) assessed as residual activity at 1 uM poly(Glu, Tyr) 4:1 as substrate incubated 40 mins in presence of [gamma-33ATP] by scintillation counting based radiometry assay relative to control
[17] = test system: Mast/stem cell growth factor receptor Kit (Homo sapiens), P10721 [V654A]; test: Inhibition of recombinant human C-Kit V654A mutant (544 to end residues) assessed as residual activity at 1 uM poly(Glu, Tyr) 4:1 as substrate incubated 40 mins in presence of [gamma-33ATP] by scintillation counting based radiometry assay relative to control
[18] = target: [Pyruvate dehydrogenase (acetyl-transferring)] kinase isozyme 2, mitochondrial (Homo sapiens) (UniProt Q15119); test: Inhibition of human PDHK2 assessed as residual activity at 1 uM by radiometric method
[19] = target: Rhodopsin kinase GRK1 (Homo sapiens) (UniProt Q15835); test: Inhibition of recombinant full length human GRK1 assessed as residual activity at 1 uM using KKKKERLLDDRHDSGLDSMKDEE as substrate at 40 mins in presence of [gamma-33ATP] by scintillation counting based radiometry assay relative to control
[20] = target: Serine/threonine-protein kinase 25 (Homo sapiens) (UniProt O00506); test: Inhibition of human STK25 (1 to 308 residues) assessed as residual activity at 1 uM using RLGRDKYKTLRQIRQ as substrate measured after 40 mins in presence of [gamma33P]ATP by scintillation counting method relative to control
GSK-3beta (H350L mutant) = GSK-3beta (H350L mutant) (Homo sapiens, UniProt P49841, H350L); test: Inhibition of human GSK-3beta H350L mutant (2 to end residues) assessed as residual activity at 1 uM using phospho GS2 peptide as substrate after 40 mins by [gamma-33ATP] radiometric assay relative to control; settings: human GSK-3beta H350L mutant enzyme (residues 2 to end), probe phospho GS2 peptide, read-out: Activity

Serine/threonine-protein kinase 17B (Homo sapiens), sequence (O94768 whole entry): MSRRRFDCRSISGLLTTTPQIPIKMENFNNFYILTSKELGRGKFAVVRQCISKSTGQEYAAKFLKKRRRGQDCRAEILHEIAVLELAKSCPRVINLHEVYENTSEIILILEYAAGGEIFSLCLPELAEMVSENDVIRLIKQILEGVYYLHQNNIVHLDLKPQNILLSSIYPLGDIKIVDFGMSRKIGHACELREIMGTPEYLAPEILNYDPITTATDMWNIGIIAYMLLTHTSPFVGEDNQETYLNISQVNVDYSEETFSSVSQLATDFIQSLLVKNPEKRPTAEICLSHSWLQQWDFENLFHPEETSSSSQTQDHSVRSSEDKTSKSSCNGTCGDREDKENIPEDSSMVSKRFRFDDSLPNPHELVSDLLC
Serine/threonine-protein kinase 25 (Homo sapiens), sequence (O00506 whole entry, looked up, the tested form may be a part): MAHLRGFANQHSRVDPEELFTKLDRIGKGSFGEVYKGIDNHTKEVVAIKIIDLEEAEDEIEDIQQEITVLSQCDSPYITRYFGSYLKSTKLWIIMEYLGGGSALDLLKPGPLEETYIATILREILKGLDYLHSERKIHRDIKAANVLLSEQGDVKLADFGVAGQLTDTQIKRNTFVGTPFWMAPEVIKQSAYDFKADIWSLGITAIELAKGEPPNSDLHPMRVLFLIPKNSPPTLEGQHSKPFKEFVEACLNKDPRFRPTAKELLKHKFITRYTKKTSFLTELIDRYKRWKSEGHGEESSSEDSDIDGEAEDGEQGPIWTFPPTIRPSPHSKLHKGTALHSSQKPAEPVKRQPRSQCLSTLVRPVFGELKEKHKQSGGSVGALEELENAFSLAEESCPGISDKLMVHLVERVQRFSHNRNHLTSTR
Serine/threonine-protein kinase PAK 3 (Homo sapiens), sequence (O75914 whole entry, looked up): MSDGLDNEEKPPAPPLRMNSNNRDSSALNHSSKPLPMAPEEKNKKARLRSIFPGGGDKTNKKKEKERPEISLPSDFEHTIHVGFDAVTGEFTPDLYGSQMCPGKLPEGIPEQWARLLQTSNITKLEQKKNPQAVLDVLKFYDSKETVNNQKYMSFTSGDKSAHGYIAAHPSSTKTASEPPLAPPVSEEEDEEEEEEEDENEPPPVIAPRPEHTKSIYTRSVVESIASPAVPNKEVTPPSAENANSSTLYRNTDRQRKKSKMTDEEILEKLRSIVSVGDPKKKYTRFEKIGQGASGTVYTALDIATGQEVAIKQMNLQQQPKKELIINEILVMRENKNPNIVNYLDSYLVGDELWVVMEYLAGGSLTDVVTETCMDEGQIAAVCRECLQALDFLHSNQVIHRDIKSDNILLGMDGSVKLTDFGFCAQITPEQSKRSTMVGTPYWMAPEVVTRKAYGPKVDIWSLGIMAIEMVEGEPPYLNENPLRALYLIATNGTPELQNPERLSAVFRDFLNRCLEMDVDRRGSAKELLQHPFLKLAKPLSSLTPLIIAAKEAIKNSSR
Mitogen-activated protein kinase kinase kinase kinase 3 (Homo sapiens), sequence (Q8IVH8 whole entry, the tested form may be a part): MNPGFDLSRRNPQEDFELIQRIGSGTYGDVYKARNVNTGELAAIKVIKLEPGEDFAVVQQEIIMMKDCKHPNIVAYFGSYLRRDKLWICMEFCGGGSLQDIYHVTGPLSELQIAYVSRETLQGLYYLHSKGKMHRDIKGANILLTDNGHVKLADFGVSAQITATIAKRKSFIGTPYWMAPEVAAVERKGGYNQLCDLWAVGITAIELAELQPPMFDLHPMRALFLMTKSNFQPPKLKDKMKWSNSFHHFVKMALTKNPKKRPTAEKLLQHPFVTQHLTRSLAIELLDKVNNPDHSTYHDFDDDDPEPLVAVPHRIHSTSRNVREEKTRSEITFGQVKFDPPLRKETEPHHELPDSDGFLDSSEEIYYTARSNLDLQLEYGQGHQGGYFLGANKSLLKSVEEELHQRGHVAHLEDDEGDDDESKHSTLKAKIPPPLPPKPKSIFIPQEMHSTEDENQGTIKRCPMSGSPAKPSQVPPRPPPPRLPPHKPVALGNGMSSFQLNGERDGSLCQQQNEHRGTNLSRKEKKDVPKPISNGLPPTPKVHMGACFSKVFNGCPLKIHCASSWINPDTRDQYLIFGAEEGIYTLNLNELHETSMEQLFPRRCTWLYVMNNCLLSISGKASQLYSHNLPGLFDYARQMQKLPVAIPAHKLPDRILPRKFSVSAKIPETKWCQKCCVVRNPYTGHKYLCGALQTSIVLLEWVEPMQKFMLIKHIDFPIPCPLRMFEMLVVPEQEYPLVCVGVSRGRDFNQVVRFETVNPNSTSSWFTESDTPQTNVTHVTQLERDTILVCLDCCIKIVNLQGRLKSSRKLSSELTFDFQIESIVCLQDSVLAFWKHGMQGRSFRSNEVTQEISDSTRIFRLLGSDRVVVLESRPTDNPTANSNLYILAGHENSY
eIF-2-alpha kinase GCN2 (Homo sapiens), Q9P2K8 [E556G], sequence (Q9P2K8 whole entry E556G, the tested form may be a part): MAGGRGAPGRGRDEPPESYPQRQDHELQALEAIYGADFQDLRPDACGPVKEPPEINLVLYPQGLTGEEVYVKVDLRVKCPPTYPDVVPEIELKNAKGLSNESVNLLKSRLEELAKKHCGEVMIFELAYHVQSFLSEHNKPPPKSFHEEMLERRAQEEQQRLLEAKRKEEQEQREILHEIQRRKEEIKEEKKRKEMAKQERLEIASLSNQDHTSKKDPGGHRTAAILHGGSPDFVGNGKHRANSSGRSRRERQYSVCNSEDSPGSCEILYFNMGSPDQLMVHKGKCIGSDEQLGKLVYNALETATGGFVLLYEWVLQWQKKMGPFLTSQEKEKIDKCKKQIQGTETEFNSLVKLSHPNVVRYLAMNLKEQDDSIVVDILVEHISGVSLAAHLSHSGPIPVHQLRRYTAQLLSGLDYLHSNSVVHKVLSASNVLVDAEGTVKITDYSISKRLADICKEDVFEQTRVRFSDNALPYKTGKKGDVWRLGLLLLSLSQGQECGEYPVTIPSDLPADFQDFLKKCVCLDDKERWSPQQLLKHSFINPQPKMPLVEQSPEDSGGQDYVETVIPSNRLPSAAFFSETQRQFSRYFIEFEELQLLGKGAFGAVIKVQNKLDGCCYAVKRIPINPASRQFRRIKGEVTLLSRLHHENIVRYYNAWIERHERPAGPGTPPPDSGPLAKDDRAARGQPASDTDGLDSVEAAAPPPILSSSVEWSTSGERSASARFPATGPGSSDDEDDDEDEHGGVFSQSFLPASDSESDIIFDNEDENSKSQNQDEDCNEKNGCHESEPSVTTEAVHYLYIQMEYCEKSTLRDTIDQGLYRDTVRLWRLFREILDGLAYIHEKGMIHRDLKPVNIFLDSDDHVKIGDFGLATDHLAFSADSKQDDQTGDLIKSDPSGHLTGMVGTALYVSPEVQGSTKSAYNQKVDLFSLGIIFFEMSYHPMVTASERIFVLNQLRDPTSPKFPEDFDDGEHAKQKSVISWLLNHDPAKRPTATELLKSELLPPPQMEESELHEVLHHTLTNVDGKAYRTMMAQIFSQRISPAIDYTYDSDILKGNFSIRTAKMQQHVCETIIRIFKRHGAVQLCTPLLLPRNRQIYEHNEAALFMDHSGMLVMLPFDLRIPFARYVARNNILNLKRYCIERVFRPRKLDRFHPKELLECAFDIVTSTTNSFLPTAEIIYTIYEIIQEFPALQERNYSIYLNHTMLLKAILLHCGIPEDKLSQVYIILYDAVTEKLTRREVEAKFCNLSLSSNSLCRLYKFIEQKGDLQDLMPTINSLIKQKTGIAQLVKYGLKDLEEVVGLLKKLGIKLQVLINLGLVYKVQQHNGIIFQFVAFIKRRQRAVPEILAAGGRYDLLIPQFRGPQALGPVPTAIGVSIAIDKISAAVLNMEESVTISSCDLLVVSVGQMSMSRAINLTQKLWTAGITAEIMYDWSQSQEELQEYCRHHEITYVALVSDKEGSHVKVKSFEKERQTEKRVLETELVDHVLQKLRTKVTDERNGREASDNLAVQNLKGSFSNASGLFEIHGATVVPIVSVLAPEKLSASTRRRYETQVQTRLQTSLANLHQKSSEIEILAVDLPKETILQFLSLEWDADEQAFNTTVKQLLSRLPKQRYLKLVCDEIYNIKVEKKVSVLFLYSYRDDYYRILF
Mast/stem cell growth factor receptor Kit (Homo sapiens), P10721 [V654A], sequence (P10721 whole entry V654A): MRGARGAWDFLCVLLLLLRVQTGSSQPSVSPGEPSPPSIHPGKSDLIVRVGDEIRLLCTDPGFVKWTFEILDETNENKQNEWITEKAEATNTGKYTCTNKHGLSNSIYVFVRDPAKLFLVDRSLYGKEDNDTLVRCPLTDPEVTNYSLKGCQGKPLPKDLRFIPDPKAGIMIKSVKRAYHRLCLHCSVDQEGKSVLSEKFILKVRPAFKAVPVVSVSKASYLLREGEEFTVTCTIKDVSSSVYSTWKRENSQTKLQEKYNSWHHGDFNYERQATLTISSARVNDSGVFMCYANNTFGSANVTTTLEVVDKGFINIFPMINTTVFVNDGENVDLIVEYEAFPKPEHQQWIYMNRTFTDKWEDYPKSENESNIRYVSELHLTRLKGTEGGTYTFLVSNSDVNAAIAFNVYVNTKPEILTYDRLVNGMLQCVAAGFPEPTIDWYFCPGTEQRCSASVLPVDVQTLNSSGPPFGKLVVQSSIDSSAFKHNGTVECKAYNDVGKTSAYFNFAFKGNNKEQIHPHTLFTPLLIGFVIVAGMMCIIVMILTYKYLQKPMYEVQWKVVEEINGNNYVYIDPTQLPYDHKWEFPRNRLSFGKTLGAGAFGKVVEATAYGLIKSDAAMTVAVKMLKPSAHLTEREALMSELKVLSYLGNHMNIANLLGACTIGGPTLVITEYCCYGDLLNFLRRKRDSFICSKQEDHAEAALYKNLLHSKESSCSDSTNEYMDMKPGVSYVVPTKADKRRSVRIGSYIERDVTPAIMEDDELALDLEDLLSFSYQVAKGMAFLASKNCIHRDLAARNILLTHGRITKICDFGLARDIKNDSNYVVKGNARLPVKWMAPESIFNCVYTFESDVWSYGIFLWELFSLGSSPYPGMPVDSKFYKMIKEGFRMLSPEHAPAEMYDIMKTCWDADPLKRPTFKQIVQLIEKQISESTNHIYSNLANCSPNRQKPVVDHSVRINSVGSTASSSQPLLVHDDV

| SMILES | Activity [1] | Activity [2] | Activity [3] | Activity [4] | Activity [5] | Activity [6] | Activity [7] | Activity [8] | Activity [9] | Activity [10] | Activity [11] | Activity [12] | IC50 [13] | Activity [14] | Activity [15] | Activity [16] | Activity [17] | Activity [18] | Activity [19] | Activity [20] | further results |
| --- | --- | --- | --- | --- | --- | --- | --- | --- | --- | --- | --- | --- | --- | --- | --- | --- | --- | --- | --- | --- | --- |
| N=C1NC(=O)/C(=C\c2ccc(-c3cccc([N+](=O)[O-])c3)o2)S1 | 96% | 59% | 61% | 72% | 102% | 80% | 92% | 104% | 96% | 95% | 103% | 85% | 110 nM | 112% | 98% | 98% | 108% | 102% | 97% | 97% | activity at 40 min, 1 µM (GSK-3beta (H350L mutant)): 17% |
| C=CCOC(=O)c1cc(-c2ccc(/C=C3/NC(=S)NC3=O)o2)ccc1Cl | 102% | 80% | 54% | 73% | 99% | 83% | 91% | 106% | 100% | 102% | 100% | 106% | 218 nM | 100% | 99% | 85% | 95% | 107% | 104% | 90% | activity at 40 min, 1 µM (GSK-3beta (H350L mutant)): 31% |
